Assay results from patent US20090068290A1, “BIFEPRUNOX DOSES FOR TREATING SCHIZOPHRENIA” (priority 2006, published 2009).

Tests used:
Format in all cases: in vivo, human
[1] = test system: adult subjects with schizophrenia; assay: CGI Improvement score, Clinical Study Three; conditions: 15 mg, LOCF
Protocol: CLINICAL STUDY THREE: Table 29 below presents frequencies for the seven categories of CGI Improvement ratings by visit using LOCF for the ITT population. Statistical differences among treatment groups regarding the mean CGI Improvement score were evaluated using a CMH test stratified by pooled center applied to the frequencies of the seven CGI Improvement categories with modified ridit scores. […] The treatment comparison of the 30 mg bifeprunox group versus placebo group was not notable (p=0.162). No notable differences were observed between the placebo group and either of the two bifeprunox dose groups at any other time point during the study (Week 1 through Week 4).

[2] = test system: adult subjects with schizophrenia; assay: PANSS negative symptom subscale score, Clinical Study Three; conditions: LOCF; for Change from Baseline in PANSS Negative Symptom Subscale Score, Mean (SD) / Change from Baseline in PANSS Negative Symptom Subscale Score, Median: Olanzapine 15 mg, ITT population
Description: (§1) SECONDARY OBJECTIVES To assess the efficacy of bifeprunox in treating schizophrenia using the Positive Symptom sub-scale score of the PANSS, the Negative Symptom sub-scale score of the PANSS, the General Psychopathology sub-scale of the PANSS, Brief Psychiatric Rating Scale (BPRS) total score derived from the PANSS, BPRS psychosis score derived from the PANSS, the Clinical Global Impression Severity of Illness score (CGI-S), the Clinical Global Impression Improvement score (CGI-I), CGI-I responder rate, PANSS responder rate based on the PANSS total score, Calgary Depression Scale for Schizophrenia (CDSS), and Subject Satisfaction rating.
(§2) There were four treatment arms in this study, approximately 144 subjects per arm. […] After completing the Single-Blind Placebo Lead-in Period of at least three days, bifeprunox-treated subjects were titrated from 0.25 mg up to 20 mg/day or 30 mg/day according to a standardized titration scheme over a seven- or eight-day period, respectively. When the assigned dose was reached, subjects were maintained at that dose for the remainder of the six week treatment period. […] Subjects were hospitalized (if not already inpatients) after eligibility for study entry was verified, starting from the Screening Visit until at least 10 days after Baseline. Subjects could be hospitalized longer than 10 days if considered medically necessary by the Investigator. Rating scale assessments for efficacy and abnormal movement disorders were done weekly except for Week 5. […] Subject satisfaction with study medication was assessed at Week 6.

[3] = test system: adult subjects with schizophrenia; assay: PANSS positive symptom subscale score, Clinical Study Three; conditions: Olanzapine 15 mg, LOCF, ITT
Description: as §1, §2

[4] = test system: adult subjects with schizophrenia; assay: CGI Improvement score, Clinical Study One; conditions: 6 mg
Protocol: There were five treatment groups in this study. […] Study medication was administered once daily. After Baseline measurements were performed, the titration phase was begun. Bifeprunox treated subjects were titrated up to 5 mg, 10 mg or 20 mg according to a standardized titration schedule (Day 1: 0.125 mg, Day 2: 0.25 mg, Day 3: 0.5 mg, Day 4: 1.0 mg, Day 5: 2.0 mg, Day 6: 5.0 mg, Day 7: 10.0 mg, Day 8: 20 mg). When the assigned dose was reached, subjects were maintained at that dose for the remainder of the six-week treatment period.
The change in the Positive and Negative Symptom Scale (PANSS) total score, from baseline to endpoint, was the primary outcome measure. Secondary efficacy measures included: PANSS positive, PANSS negative, PANSS general psychopathology (GPP) score, PANSS-derived Brief Psychiatric Rating Scale (BPRS) score, Clinical Global Impressions-Severity of Illness (CGI-S), CGI-Improvement (CGI-I) scores, and responder rates. Safety and tolerability evaluations included extrapyramidal symptoms (EPS), weight gain, lipid profile, and serum prolactin.

[5] = test system: adult subjects with schizophrenia; assay: PANSS general psychopathology subscale score, Clinical Study Two; conditions: LOCF; for Change from Baseline in General Psychopathology Subscale Score, Mean (SD) / Change from Baseline in General Psychopathology Subscale Score, Median: Risperidone 6 mg, ITT population
Protocol: Rating scale assessments were performed weekly, except for week 5, to measure the change from baseline to endpoint of the PANSS total score. Other assessments included: PANSS positive symptom subscale score, PANSS negative symptom subscale score, PANSS general pschopathology subscale score, BPRS total score, BPRS psychosis score, the CGI-S score, the CGI-I score, responder rates based on the PANSS total score, and the Calgary Depression Scale for Schizophrenia (CDSS). […]
Subjects who completed this study had the option to continue in the long-term. […] Risperidone-treated subjects were titrated from 2 mg to 6 mg daily over a three-day period and were subsequently maintained at 6 mg/day for the remainder of the treatment period. […] Blood samples were also obtained at Screening/Baseline, Week 3, and Week 6 for clinical laboratory assessments.

Compound: Cc1cc2c(s1)Nc1ccccc1N=C2N1CCN(C)CC1 [Olanzapine, olanzapine, reference compound]
- CGI Improvement Minimally Improved, % ([1]; Week 2): (45%)
- CGI Improvement Minimally Worse, % ([1]; Week 2): (6%)
- CGI Improvement Much Improved, % ([1]; Week 2): (27%)
- CGI Improvement Much Worse, % ([1]; Week 2): (<1%)
- CGI Improvement No Change, % ([1]; Week 2): (18%)
- CGI Improvement Very Much Improved, % ([1]; Week 2): (4%)
- CGI Improvement Minimally Improved, % ([1]; Week 4): (29%)
- CGI Improvement Minimally Worse, % ([1]; Week 4): (7%)
- CGI Improvement Much Improved, % ([1]; Week 4): (36%)
- CGI Improvement Much Worse, % ([1]; Week 4): (3%)
- CGI Improvement No Change, % ([1]; Week 4): (17%)
- CGI Improvement Very Much Improved, % ([1]; Week 4): (7%)
- CGI Improvement Minimally Improved, % ([1]; Week 6/Endpoint): (29%)
- CGI Improvement Minimally Worse, % ([1]; Week 6/Endpoint): (7%)
- CGI Improvement Much Improved, % ([1]; Week 6/Endpoint): (34%)
- CGI Improvement Much Worse, % ([1]; Week 6/Endpoint): (3%)
- CGI Improvement No Change, % ([1]; Week 6/Endpoint): (14%)
- CGI Improvement Very Much Improved, % ([1]; Week 6/Endpoint): (12%)
- Change from Baseline in PANSS Negative Symptom Subscale Score, Mean (SD) ([2]; Week 1): −1.8 (3.1)
- Change from Baseline in PANSS Negative Symptom Subscale Score, Median ([2]; Week 1): −1
- Change from Baseline in PANSS Negative Symptom Subscale Score, Mean (SD) ([2]; Week 2): −3.0 (3.8)
- Change from Baseline in PANSS Negative Symptom Subscale Score, Median ([2]; Week 2): −3
- Change from Baseline in PANSS Negative Symptom Subscale Score, Mean (SD) ([2]; Week 3): −4.0 (4.8)
- Change from Baseline in PANSS Negative Symptom Subscale Score, Median ([2]; Week 3): −3
- Change from Baseline in PANSS Negative Symptom Subscale Score, Mean (SD) ([2]; Week 4): −4.0 (4.9)
- Change from Baseline in PANSS Negative Symptom Subscale Score, Median ([2]; Week 4): −4
- Change from Baseline in PANSS Negative Symptom Subscale Score, Mean (SD) ([2]; Week 6/Endpoint): −4.6 (5.2)
- Change from Baseline in PANSS Negative Symptom Subscale Score, Median ([2]; Week 6/Endpoint): −4
- mean change (SD) from Baseline to Endpoint in PANSS Negative Symptom subscale score ([2]; olanzapine 15 mg, ITT): −4.6 (5.2)
- Change from Baseline in PANSS Positive Symptom Subscale Score, Mean (SD) ([3]; Week 1): −3.0 (3.3)
- Change from Baseline in PANSS Positive Symptom Subscale Score, Median ([3]; Week 1): −2
- Change from Baseline in PANSS Positive Symptom Subscale Score, Mean (SD) ([3]; Week 2): −4.9 (4.0)
- Change from Baseline in PANSS Positive Symptom Subscale Score, Median ([3]; Week 2): −5
- Change from Baseline in PANSS Positive Symptom Subscale Score, Mean (SD) ([3]; Week 3): −6.0 (4.9)
- Change from Baseline in PANSS Positive Symptom Subscale Score, Median ([3]; Week 3): −6
- Change from Baseline in PANSS Positive Symptom Subscale Score, Mean (SD) ([3]; Week 4): −6.4 (5.4)
- Change from Baseline in PANSS Positive Symptom Subscale Score, Median ([3]; Week 4): −7
- Change from Baseline in PANSS Positive Symptom Subscale Score, Mean (SD) ([3]; Week 6/Endpoint): −7.0 (5.8)
- Change from Baseline in PANSS Positive Symptom Subscale Score, Median ([3]; Week 6/Endpoint): −7

Compound: Cc1nc2n(c(=O)c1CCN1CCC(c3noc4cc(F)ccc34)CC1)CCCC2 [Risperidone, risperidone, reference compound]
- Actual Value of CGI Improvement Score, Mean (S.D.) ([4]; Endpoint LOCF): 3.02 (1.21)
- Actual Value of CGI Improvement Score, Median ([4]; Endpoint LOCF): 3.0
- Actual Value of CGI Improvement Score, Mean (S.D.) ([4]; Week 1, LOCF): 3.43 (0.97)
- Actual Value of CGI Improvement Score, Median ([4]; Week 1, LOCF): 3.0
- Actual Value of CGI Improvement Score, Median ([4]; Week 2, LOCF): 3.0
- Actual Value of CGI Improvement Score, Mean (S.D.) ([4]; Week 3, LOCF): 2.97 (1.05)
- Actual Value of CGI Improvement Score, Median ([4]; Week 3, LOCF): 3.0
- Actual Value of CGI Improvement Score, Mean (S.D.) ([4]; Week 4, LOCF): 3.05 (1.11)
- Actual Value of CGI Improvement Score, Median ([4]; Week 4, LOCF): 3.0
- Change from Baseline in General Psychopathology Subscale Score, Mean (SD) ([5]; Week 1): −3.9 (5.6)
- Change from Baseline in General Psychopathology Subscale Score, Median ([5]; Week 1): −4
- Change from Baseline in General Psychopathology Subscale Score, Mean (SD) ([5]; Week 2): −6.7 (7.3)
- Change from Baseline in General Psychopathology Subscale Score, Median ([5]; Week 2): −6
- Change from Baseline in General Psychopathology Subscale Score, Mean (SD) ([5]; Week 3): −7.6 (7.7)
- Change from Baseline in General Psychopathology Subscale Score, Median ([5]; Week 3): −8
- Change from Baseline in General Psychopathology Subscale Score, Mean (SD) ([5]; Week 4): −8.4 (8.5)
- Change from Baseline in General Psychopathology Subscale Score, Median ([5]; Week 4): −9
- Change from Baseline in General Psychopathology Subscale Score, Mean (SD) ([5]; Week 6/Endpoint): −8.6 (9.8)
- Change from Baseline in General Psychopathology Subscale Score, Median ([5]; Week 6/Endpoint): −9
- mean change (SD) from Baseline to Endpoint in PANSS general psychopathology subscale score ([5]; risperidone 6 mg, ITT): −8.6 (9.8)
